# From patent publication US20230415137A1, “PHOTOCATALYST COMPOSITION, PHOTOCATALYST COMPOSITION SOLUTION, PHOTOCATALYST MEMBER, METHOD FOR USING PHOTOCATALYST COMPOSITION, AND SPACE DISINFECTION METHOD” (priority 2020, published 2023)
# System: indigenous bacteria collected from the ultrasonic humidifier
# Assay: Bactericidal evaluation (photocatalyst composition solutions, first example group)
# Assay type: cell-based
# Conditions: riboflavin sodium phosphate set to 10,000 ppm, no sacrificial agent
# Procedure: The indigenous bacteria collected from the ultrasonic humidifier is adjusted to a predetermined concentration, then was added to an autoclave-sterilized normal bouillon medium (Eiken (register trade mark), manufactured by Eiken Chemical Co., Ltd.). Shaking culture for 24 hours was performed in a shaking incubator at 30° C. and 120 rpm. The solution when the number of bacteria reached about 1.5×10^9 CFU/ml was used as an inoculum solution.
# Separately, the photocatalyst composition solutions obtained in the above Examples and Comparative Examples were also autoclave sterilized.
# The inoculum solution was diluted with each of the photocatalyst composition solutions of the above Examples and Comparative Examples to prepare a solution having the number of bacteria of 1.5×10^7 CFU/ml, which was used as a test solution.
# Two similar samples for each example and comparative example were prepared and stored under the following two conditions. The number of bacteria was measured using “Sani-Check BF” (manufactured by Biosan Laboratories, Inc.) and evaluation was performed according to the following evaluation criteria. […]
smiles,measurement,value
Cc1cc2nc3c(=O)[nH]c(=O)nc-3n(C[C@H](O)[C@H](O)[C@H](O)COP(=O)(O)O)c2cc1C [riboflavin sodium phosphate],bactericidal effect as worded in the text,a certain degree of bactericidal effect
